Source: patent US5376658A, “5,10-methylene-tetrahydrofolate as a modulator of a chemotherapeutic agent” (priority 1993, dated 1994)

Experiments:
CCRF-CEM cells = assay: Intracellular CH2 FH4 and FH4 levels in CCRF-CEM cells after exposure to 10 μM folate; format: cell-based, human; conditions: 16-hr exposure, control 3.08
Text: In further support of the hypothesis that objectives of CH2 FH4 administration are increases in FH4 and FH4 /CH2 FH4 values, are the results of a cell culture study, shown in Table VI, comparing the relative effectiveness of different folate forms on assayed intracellular levels of the two folates.

[1] = tested on: CH2 FH4 and FH4 in breast cancer biopsies; assay: CH2 FH4 and FH4 levels in breast cancer biopsies during L-serine infusion after high-dose (6R,S)-leucovorin; format: in vivo, human; parameters: CH2 FH4 / FH4: unit not given here; conditions: patient two
Experimental: As noted previously (see pages 5-6) and mentioned in C. P. Spears, et al., Proc. Am. Soc. Clin. Oncol. 8:69 (1989), the inventors have used pharmacologic intervention to convert intracellular FH4 to CH2 FH4 in patients receiving high-dose reduced folate therapy combined with weekly i.v. bolus 5-FU, 450 mg/sq. m. The method used was administration of i.v. L-serine, 15.0 grams, over 1 hour after the end of overnight high-dose (6R,S)-leucovorin i.v. infusion.
In contrast to the data shown in Tables II and III, the inventors were able to also assay for intratumoral FH4 in addition to CH2 FH4 (this latter is also referred to as "FBC" in those Tables or Folate-Binding Capacity), at time points during this pharmacologic forcing of metabolism of FH4 to CH2 FH4 through the enzyme, serine hydroxymethyltransferase. This enzyme splits a carbon of L-serine to generate formaldehyde in the presence of FH4.
^a Minutes after initiation of 15.0 gram LSerine i.v. 60min infusion,
after end of overnight (6R,S)leucovorin highdose i.v. infusion.
^b Assays performed as described (C.P. Spears et al., Adv. Exp. Med.

[2] = 0 min (start of L-serine, after overnight leucovorin)

Structure (SMILES) | Intracellular FH4 (CCRF-CEM cells) | Ratio of FH4/CH2 FH4 ([1]; 0 min) | CH2 FH4 [1, 2] | FH4 [1, 2]
CN1c2c(nc(N)[nH]c2=O)NC[C@H]1CNc1ccc(C(=O)N[C@@H](CCC(=O)O)C(=O)O)cc1 [(6R,S)-MTHF, 5-methyl-(6R, S)-tetrahydrofolate] | 10.55 nmole/10^9 Cells |  |  | 
Nc1nc2c(c(=O)[nH]1)N(C=O)[C@@H](CNc1ccc(C(=O)N[C@@H](CCC(=O)O)C(=O)O)cc1)CN2 [(6S)-LV] | 10.64 nmole/10^9 Cells |  |  | 
Nc1nc2c(c(=O)[nH]1)N=C(CNc1ccc(C(=O)N[C@@H](CCC(=O)O)C(=O)O)cc1)CN2 [DHF, Dihydrofolate] | 7.10 nmole/10^9 Cells |  |  | 
Nc1nc2c(c(=O)[nH]1)N(C=O)[C@H](CNc1ccc(C(=O)N[C@@H](CCC(=O)O)C(=O)O)cc1)CN2 [LV, (6R,S)-5-formyl-tetrahydrofolate] |  | 12.2 | 0.194 | 2.370
